# From US10206909B2, “3-(1H-pyrrolo[2,3-B]pyridin-2-yl)-1H-pyrazolo[4,3-B]pyridines and therapeutic uses thereof” (Samumed, LLC, priority 2015, dated 2019)
# Tests used:
# Type in all cases: cell-based
# [1] = test system: SW480 colon cancer cells; experiment: Cell viability assay (CellTiter-Blue); conditions: Homo sapiens; for EC50: 96 h, SW480 cell viability, four days, CellTiter-Blue; for inhibition at 10 µM: given where EC50 >10 μM, SW480 viability, read-out: percent inhibition at 10 μM
# In short: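 Four-day viability readout in SW480 cells: compound at 0.0045–10 μM (1:3 series), DMSO controls in eight replicates, CellTiter-Blue fluorescence after ~3 h. Values are regression-derived EC50s, or percent inhibition at 10 μM when EC50 exceeds 10 μM.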
# [2] = test system: primary human fibroblasts derived from IPF patients (LL29 cells); experiment: Inhibition of the fibrotic process: αSMA staining in TGF-β1 treated fibroblasts; conditions: Fibroblast; for EC50: 96 h, LL29 cells, TGF-β1 20 ng/mL, 4 days, % αSMA positive cells; for inhibition at 10 µM: given where EC50 >10 μM, LL29, αSMA, read-out: percent inhibition at 10 μM
# In short: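 EC50 from triplicate-well dose-response fits of % αSMA-positive cells, normalized to TGF-β1-stimulated DMSO controls, with SYTOX-positive dead cells excluded. LL29 IPF fibroblasts received compound at 10 μM–1.87 nM (0.1% DMSO) plus 20 ng/mL TGF-β1 for 4 days in 1% FBS medium; above 10 μM, % inhibition at 10 μM reported.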
# [3] = test system: Wnt activity (Sp5-Luc reporter, SW480 colon carcinoma cells); experiment: Wnt activity screening assay: Sp5-Luc reporter gene assay in SW480 cells; conditions: Homo sapiens; for EC50: SW480 cells, overnight incubation; for inhibition at 10 µM: given where EC50 >10 μM, SW480, read-out: percent inhibition at 10 μM
# In short: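 Luminescence (BrightGlo) read after overnight 37 °C exposure of Sp5-Luc SW480 reporter cells, 4,000/well in 1% FBS, to compound dosed 1:3 over 10 points from 10 μM with 0.1% DMSO. Values normalized to DMSO-only cells, fitted with variable-slope four-parameter model; where EC50 exceeds 10 μM, % inhibition at 10 μM reported.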
Structure (SMILES),EC50 [1],EC50 [2],EC50 [3],inhibition at 10 µM [3],inhibition at 10 µM [1],inhibition at 10 µM [2]
"Fc1ccccc1-c1ccnc2[nH]c(-c3n[nH]c4ccc(-c5cncc(CNCc6ccccc6)c5)nc34)cc12 [Compound 80, N-Benzyl-1-(5-(3-(4-(2-fluorophenyl)-1H-pyrrolo[2,3-b]pyridin-2-yl)-1H-pyrazolo[4,3-b]pyridin-5-yl)pyridin-3-yl)methanamine]",2.06 µM,1.19 µM,> 10 µM,29%,,
"c1cc(-c2ccnc3[nH]c(-c4n[nH]c5ccc(-c6cncc(CN7CCCCC7)c6)nc45)cc23)ccn1 [Compound 127, 5-(5-(Piperidin-1-ylmethyl)pyridin-3-yl)-3-(4-(pyridin-4-yl)-1H-pyrrolo[2,3-b]pyridin-2-yl)-1H-pyrazolo[4,3-b]pyridine]",> 10 µM,> 10 µM,> 10 µM,5.8%,14.5%,0%
"c1cc(N2CCCCC2)c2cc(-c3n[nH]c4ccc(C5CCNCC5)nc34)[nH]c2n1 [Compound 601, 3-(4-(Piperidin-1-yl)-1H-pyrrolo[2,3-b]pyridin-2-yl)-5-(piperidin-4-yl)-1H-pyrazolo[4,3-b]pyridine]",> 10 µM,> 10 µM,> 10 µM,3.5%,40.7%,20.1%
"c1csc(-c2ccnc3[nH]c(-c4n[nH]c5ccc(-c6cncnc6)nc45)cc23)c1 [Compound 363, 5-(Pyrimidin-5-yl)-3-(4-(thiophen-2-yl)-1H-pyrrolo[2,3-b]pyridin-2-yl)-1H-pyrazolo[4,3-b]pyridine]",> 10 µM,0.546 µM,> 10 µM,29.8%,29.3%,
"CN1CCN(c2ccnc3[nH]c(-c4n[nH]c5ccc(-c6cncc(NC(=O)CC(C)(C)C)c6)nc45)cc23)CC1 [Compound 240, 3,3-Dimethyl-N-(5-(3-(4-(4-methylpiperazin-1-yl)-1H-pyrrolo[2,3-b]pyridin-2-yl)-1H-pyrazolo[4,3-b]pyridin-5-yl)pyridin-3-yl)butanamide]",2 µM,0.67 µM,3.91 µM,,,
"Cc1ccncc1-c1ccc2[nH]nc(-c3cc4c(-c5ccc(F)cc5)ccnc4[nH]3)c2n1 [Compound 33, 3-(4-(4-Fluorophenyl)-1H-pyrrolo[2,3-b]pyridin-2-yl)-5-(4-methylpyridin-3-yl)-1H-pyrazolo[4,3-b]pyridine]",> 10 µM,> 10 µM,> 10 µM,16.2%,15.9%,2.9%
"O=C(Cc1ccccc1)Nc1cncc(-c2ccc3[nH]nc(-c4cc5c(-c6ccoc6)ccnc5[nH]4)c3n2)c1 [Compound 318, N-(5-(3-(4-(Furan-3-yl)-1H-pyrrolo[2,3-b]pyridin-2-yl)-1H-pyrazolo[4,3-b]pyridin-5-yl)pyridin-3-yl)-2-phenylacetamide]",> 10 µM,> 10 µM,> 10 µM,3.4%,3%,25.7%
"O=C(CC1CCNCC1)Nc1cncc(-c2ccc3[nH]nc(-c4cc5c(-c6ccoc6)ccnc5[nH]4)c3n2)c1 [Compound 689, N-(5-(3-(4-(Furan-3-yl)-1H-pyrrolo[2,3-b]pyridin-2-yl)-1H-pyrazolo[4,3-b]pyridin-5-yl)pyridin-3-yl)-2-(piperidin-4-yl)acetamide]",> 10 µM,2.18 µM,> 10 µM,10.9%,9.2%,
